The record followed here is US7687523B2, “3-heteroaryl-3,9-diazabicyclo[3.3.1]nonane derivatives as nicotinic acetylcholine receptor agonists” (Neurosearch A/S, priority 2006, dated 2010).

Like-named read-outs stand apart in the source and are kept apart here.

The assay has as its target nAChRs comprised of α4 and β2 subunits (Rattus norvegicus, UniProt P09483+P12390). Briefly: In vitro inhibition of 3H-cytisine binding. From the text:
In Vitro Inhibition of ^3H-Cytisine Binding
Molecular biology studies have elucidated that there are at least ten nicotinic receptor genes in the brain. The predominant subtype with high affinity for nicotine is comprised of α4 and β2 subunits. nAChRs of the latter type can selectively be labelled by the nicotine agonist ^3H-cytisine.
A standard assay for determining in vitro inhibition of ^3H-cytisine binding is described in e.g. WO 02/096911. When subjected to this test the compounds of the invention show inhibitory activity on the micromolar or sub-micromolar range.

nAChRs comprised of α4 and β2 subunits, sequence (P09483 31-630): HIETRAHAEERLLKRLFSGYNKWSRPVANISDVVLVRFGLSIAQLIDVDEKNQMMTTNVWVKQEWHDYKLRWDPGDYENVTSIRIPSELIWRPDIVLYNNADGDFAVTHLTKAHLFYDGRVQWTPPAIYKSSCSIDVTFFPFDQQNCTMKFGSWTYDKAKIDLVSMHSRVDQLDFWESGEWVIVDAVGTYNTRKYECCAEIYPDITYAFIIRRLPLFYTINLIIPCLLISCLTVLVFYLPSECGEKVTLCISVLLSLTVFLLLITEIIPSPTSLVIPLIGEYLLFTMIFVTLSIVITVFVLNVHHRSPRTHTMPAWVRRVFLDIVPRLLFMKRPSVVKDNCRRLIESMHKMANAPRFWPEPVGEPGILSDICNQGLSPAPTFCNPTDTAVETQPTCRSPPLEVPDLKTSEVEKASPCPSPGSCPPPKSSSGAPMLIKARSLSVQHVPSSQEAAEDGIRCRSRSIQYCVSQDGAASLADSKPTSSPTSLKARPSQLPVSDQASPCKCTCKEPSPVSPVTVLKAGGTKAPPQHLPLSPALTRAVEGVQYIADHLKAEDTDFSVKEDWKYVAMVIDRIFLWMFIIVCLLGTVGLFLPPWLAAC
nAChRs comprised of α4 and β2 subunits, sequence (P12390 25-500): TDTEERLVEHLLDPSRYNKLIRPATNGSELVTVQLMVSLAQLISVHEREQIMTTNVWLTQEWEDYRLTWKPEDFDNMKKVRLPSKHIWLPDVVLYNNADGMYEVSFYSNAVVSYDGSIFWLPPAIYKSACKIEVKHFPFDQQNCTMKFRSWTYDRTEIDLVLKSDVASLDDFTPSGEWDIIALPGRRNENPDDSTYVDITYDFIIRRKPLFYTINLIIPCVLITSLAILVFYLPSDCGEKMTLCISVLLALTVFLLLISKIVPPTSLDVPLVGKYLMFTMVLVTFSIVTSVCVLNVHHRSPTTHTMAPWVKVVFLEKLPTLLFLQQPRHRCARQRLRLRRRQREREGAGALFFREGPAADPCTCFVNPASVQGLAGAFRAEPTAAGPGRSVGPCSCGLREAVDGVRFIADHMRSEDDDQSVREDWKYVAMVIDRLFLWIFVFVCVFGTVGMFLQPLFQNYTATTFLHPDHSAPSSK

`CN1C2CCCC1CN(c1cncc(Cl)c1)C2` [Compound A1, 3-(5-Chloro-pyridin-3-yl)-9-methyl-3,9-diaza-bicyclo[3.3.1]nonane]: the IC50 (usually the concentration that inhibits the measured activity by half) was 6.3 nM.

Consider `c1cncc(N2CC3CCCC(C2)N3)c1` [Compound B1, 3-Pyridin-3-yl-3,9-diaza-bicyclo[3.3.1]nonane], for which the IC50 is 2.5 nM.

In the case of `CN1C2CCCC1CN(c1cccnn1)C2` [Compound C1, 9-Methyl-3-pyridazin-3-yl-3,9-diaza-bicyclo[3.3.1]nonane], the IC50 (3H-cytisine as radioligand, standard assay as described in WO 02/096911, read-out: In vitro Inhibition of 3H-cytisine Binding IC50) worked out at 460 nM.
